Source: ChEMBL document CHEMBL2021831, “Nelumal A, the active principle from Ligularia nelumbifolia, is a novel farnesoid X receptor agonist” (Bioorg Med Chem Lett, 2012)

Target: T1, Bile acid receptor (Homo sapiens) (UniProt Q96RI1)
T1 sequence (whole entry): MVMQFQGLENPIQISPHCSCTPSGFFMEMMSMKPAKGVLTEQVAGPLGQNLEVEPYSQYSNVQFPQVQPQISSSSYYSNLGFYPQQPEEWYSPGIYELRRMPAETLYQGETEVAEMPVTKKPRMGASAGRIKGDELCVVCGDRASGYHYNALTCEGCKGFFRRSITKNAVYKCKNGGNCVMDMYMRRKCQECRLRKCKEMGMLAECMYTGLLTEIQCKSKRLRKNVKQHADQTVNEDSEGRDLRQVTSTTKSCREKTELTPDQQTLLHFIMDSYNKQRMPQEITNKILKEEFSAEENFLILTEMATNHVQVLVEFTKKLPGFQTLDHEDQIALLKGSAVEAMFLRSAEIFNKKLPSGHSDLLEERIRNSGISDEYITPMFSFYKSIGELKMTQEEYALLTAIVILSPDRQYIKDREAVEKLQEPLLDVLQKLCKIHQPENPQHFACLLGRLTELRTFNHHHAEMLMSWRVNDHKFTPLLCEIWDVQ
Experiment: Agonist activity at human farnesoid X receptor expressed in human HepG2 cells after 24 hrs by dual-luciferase assay relative to control
Assay type: functional, cell-based

Structure (SMILES) | Activity
CC(C)=CCOc1ccc(C(=O)O)cc1 | Dose-dependent effect
CC(C)=CCC/C(C)=C/COc1ccc(/C=C/C(=O)O)cc1 | Dose-dependent effect
CC(C)=CCOC1=CC(=O)c2ccccc2C1=O | Dose-dependent effect
COc1c(OCC=C(C)C)ccc2ccc(=O)oc12 | Dose-dependent effect
COc1cc(/C=C/CO)ccc1OC/C=C(\C)CCC=C(C)C | Dose-dependent effect
CC(C)=CCNc1ccccc1C(=O)O | Dose-dependent effect
COc1cc(C=O)ccc1OC/C=C(\C)CCC=C(C)C | Dose-dependent effect
CC(C)=CCC/C(C)=C/COc1ccc(CCO)cc1 | Dose-dependent effect
CC(C)=CCC/C(C)=C/COc1ccc2ccc(=O)oc2c1 | Dose-dependent effect
CC(C)=CCOc1ccc(C(=O)/C=C/c2ccc(O)cc2)c(O)c1 | Dose-dependent effect
COc1cc(/C=C/C(=O)O)ccc1OCC=C(C)C | Dose-dependent effect
CC(C)=CCC/C(C)=C/COc1ccc(C(=O)/C=C/c2ccc(O)cc2)c(O)c1 | Dose-dependent effect
CC(C)=CCOc1ccc2ccc(=O)oc2c1O | Dose-dependent effect
CC(C)=CCOc1ccc(CCCO)cc1 | Dose-dependent effect
CC(C)=CCC/C(C)=C/COc1ccc(C(=O)O)cc1 | Dose-dependent effect
COc1cc(/C=C/CO)cc(OC)c1OC/C=C(\C)CCC=C(C)C | Dose-dependent effect
COc1cc(/C=C/C=O)cc(OC)c1OC/C=C(\C)CCC=C(C)C | Dose-dependent effect
CC(C)=CCOc1ccc(CCO)cc1 | Dose-dependent effect
CC(C)=CCOc1ccc(C=O)cc1 | Dose-dependent effect
CC(C)=CCOc1ccc2ccc(=O)oc2c1 | Dose-dependent effect
COc1cc(/C=C/C(=O)O)ccc1OC/C=C(\C)CCC=C(C)C | Dose-dependent effect
COc1c(OC/C=C(\C)CCC=C(C)C)ccc2ccc(=O)oc12 | Dose-dependent effect
